Laboratory results reported in patent publication US7074807B2, “Compositions and methods for inducing cell death” (Georgetown University, priority 1998, dated 2006).

What was measured:
SAPK/JNK = test: SAPK/JNK1 activity (GST-cJun phosphorylation); format: cell-based, human; settings: 10 mM, 2 h, vs tempol or 1% ethanol control
Description: FIGS. 5A, 5B, 5C. Tempo stimulates tyrosine phosphorylation and activity of SAPK. […] 5A. WCLs (1 mg) were immunoprecipitated with agarose-conjugated anti-SAPK antibody, followed by immunoblotting with anti-PY MAb. 5B. In other independent experiments, anti-SAPK immunoprecipitates were first probed with anti-PY MAb (top), and the blot was then reprobed with anti-SAPK antibody (bottom). 5C. […] WCLs were immunoprecipitated with anti-JNK1 antibody, and the JNK1 activity in immunoprecipitates was measured using GST-cJun (˜41 kDa) as a substrate. UT, untreated cells grown overnight in serum-free medium; CONT/Control, cells grown in serum-free medium overnight, and treated with 1% ethanol for 2 h.
ERK and SAPK/JNK Activities—Whole cell lysates prepared as described above were immunoprecipitated (1 mg) with an agarose conjugated anti-ERK1 antibody or an agarose conjugated anti-JNK1 antibody for 2 h at 4° C. with constant agitation. The immune-complexes were washed 3 times in lysis buffer and once in KBB as mentioned earlier. ERK or JNK activity assay was carried out according to manufacturer's procedures (UBI). […] The radioactive filters were washed and counted as described above. […] The radiolabeled GST-cJun fusion protein was detected by autoradiography.

[1] = test system: bovine aortic endothelial cells; test: Apoptotic cell death by bisbenzamide trihydrochloride/Hoechst-33258 staining; format: cell-based; settings: 5 mM
[2] = Apoptosis assay (annexin V-FITC/propidium iodide flow cytometry), serum-free; settings: human
Description: FIGS. (7A1–7A3), (7B1–7B2), (7C1–7C3), (7D1–7D2), (7E1–7E3), (7F1–7F2). […] Cells were grown in serum-free medium overnight in T-25 flasks and treated with tempol (10 mM) or tempo (10 mM) for various times, trypsinized, and then resuspended in 200 ul 1× binding buffer as described in experimental procedures. The cell suspension was double-stained with annexin V-FITC and propidium iodide and analyzed by flow cytometry. Background signal was determined by comparison with double-stained, single-stained, or unstained control cells. (7A1–7A3), (7C1–7C3), and (7E1–7E3) are cytograms showing a relative distribution of viable (V), apoptotic (A), and necrotic (N) cells at 2 h following tempol or tempo treatment of MDA-MB 231 cells (A), PCI-04A cells (C), and PC-3 cells (E). (7B1–7B3), (7D1–7D2), and (7F1–7F2) are time course analyses of MDA-MB 231 cells (B), PCT-04A cells (D), and PC-3 cells (F). 100,000 cells were analyzed at each time point in triplicate (B) or quadruplicate (D and F). Solid bars, 1% ethanol, striped bars, 10 mM tempol, empty bars, 10 mM tempo. […] Data shown are representative from three to four independent experiments. (7B1–7B2), Time course analysis of MDA-MB 231 cells undergoing apoptosis (annexin V-FITC staining) (7B1), or necrosis (propidium iodide staining) (7B2). Values shown are mean±s.d. of triplicate determinations per time point in each treatment category, and representative of three to four independent experiments. […] (7D1–7D2), Time course analysis of PCI-04A cells undergoing apoptosis (annexin V-FITC staining) (7D1), or necrosis (propidium iodide staining) (7D2). Values shown are mean±s.d. of quadruplicate determinations per time point in each treatment category. […] (7F1–7F2), Time course analysis of PC-3 cells undergoing apoptosis (annexin V-FITC staining) (7F1), or necrosis (propidium iodide staining) (7F2). Values shown are mean±s.d. of quadruplicate determinations per time point in each treatment category. Control/C, cells treated with 1% ethanol for 2 h.
Apoptosis Assay—ApoAlert Annexin V apoptosis detection system (Clontech Lab Inc., Palo Alto, Calif.) was used to measure the relative distribution of apoptotic and necrotic cells. Briefly, cells were seeded at a density of 1×10^6 cells per 25 cm^2 tissue culture flask in medium containing 10% FBS overnight, followed by washing twice in serum-free medium. Cells were maintained overnight in serum-free medium and exposed to tempol (10 mM) or tempo (10 mM) for various times. […] The intensity of the dye uptake by cells was detected using FACStar plus Flow Cytometer (Becton Dickerson, Lincoln Park, N.J.), and data were analyzed using Reproman True Facts software (Seattle, Wash.). […]

Row | Structure (SMILES) | increase in the phosphorylated GST-cJun fusion protein (SAPK/JNK) | apoptotic cell death ([1]; 4 h) | apoptotic cell death ([1]; 8 h) | viability at 2 h, 10 mM [2]
1 | CC1(C)CCCC(C)(C)N1[O] [tempo, 2,2,6,6-tetramethylpiperidine-N-oxyl] | 3–7 fold | 3.97±0.33% | 38.85±1.69% | 
2 | CC1(C)CC(O)CC(C)(C)N1[O] [tempol, 4-hydroxy-tempo, reference compound] |  |  |  | 95.8%
